# Reference: patent US20260258022A1, “NOVEL HETEROCYCLIC-SUBSTITUTED PYRIMIDINE DERIVATIVE EXHIBITING CANCER CELL GROWTH INHIBITORY EFFECT, AND PHARMACEUTICAL COMPOSITION CONTAINING SAME” (ONCOBIX CO., LTD., priority 2021, published 2026)
# Experiments:
# [1] = target: ALK (Homo sapiens, UniProt Q9UM73); assay: Kinase inhibitory activity, [33P]-ATP filter assay, ALK; type: biochemical; conditions: wild-type ALK kinase, scintillation counting
# Procedure: (§1) For the compounds of Examples 1 to 8 above, the inhibitory activity against ALK, ALK mutation (ALK(G1202R)), and […] (ALK(L1196M)) was measured, and the results are shown in Table 1 below. […] Crizotinib […] was used as a control drug. • 1. Each kinase was incubated under 8 mM MOPS, pH 7.0, 0.2 mM EDTA, 250 μM KKKGQEEEYVFIE, 1 mM sodium orthovanadate, 5 mM sodium-6-glycerophosphate, 10 mM Magnesium acetate, [^33P]-ATP. • 2. The reaction proceeded by adding the evaluation compound (DMSO solution) and Mg/ATP. • 3. After about 40 minutes at room temperature, the reaction was terminated by adding 10 μL of 0.5% phosphoric acid. • 4. The reaction solution was divided into 0.5% 10 μL and spotted on a P30 filtermat. • 5. It was washed four times with 0.425% phosphoric acid for about 4 minutes. After washing once with methanol, it was dried and analyzed by scintillation counting to measure the IC50 value.
# [2] = target: ALK(G1202R) (Homo sapiens, UniProt Q9UM73, G1202R); assay: Kinase inhibitory activity, [33P]-ATP filter assay, ALK(G1202R); type: biochemical; conditions: ALK point mutant kinase, scintillation counting
# Procedure: as §1
# [3] = target: ALK(L1196M) (Homo sapiens, UniProt Q9UM73, L1196M); assay: Kinase inhibitory activity, [33P]-ATP filter assay, ALK(L1196M); type: biochemical; conditions: ALK point mutant kinase, scintillation counting
# Procedure: as §1
# [4] = test system: H2228 (EML4-ALK v3); assay: Cancer cell growth inhibition, MTT assay, H2228; type: cell-based; conditions: Homo sapiens, NCI-H2228, 72 hours incubation
# Procedure: (§2) The growth inhibitory effects of the compounds in Examples 3, 7, and 8 above on ALK mutant cancer cell lines were measured. Anticancer efficacy activity was measured using H3122 (EML4-ALK v1) and H2228 (EML4-ALK v3) as ALK mutant cell lines by the following method.
# (§3) 2×10^5 cells were seeded in a 96-well plate. 24 hours later, each of the compounds in Examples 3, 7, and 8 was treated in a dose-dependent manner, incubated for 72 hours, reacted with 15 uL MTT reagent for 4 hours, and then 100 uL 10% SDS was added thereto and incubated for 24 hours. The change in final OD was read at 595 nm. To analyze the MTT results, IC50 values were measured using prism software.
# (§4) APG-2449 was used as a control drug.
# [5] = test system: H3122 (EML4-ALK v1); assay: Cancer cell growth inhibition, MTT assay, H3122; type: cell-based; conditions: Homo sapiens, NCI-H3122, 72 hours incubation
# Procedure: as §2, §3, §4
# ALK(G1202R), sequence (Q9UM73 19-1620 G1202R): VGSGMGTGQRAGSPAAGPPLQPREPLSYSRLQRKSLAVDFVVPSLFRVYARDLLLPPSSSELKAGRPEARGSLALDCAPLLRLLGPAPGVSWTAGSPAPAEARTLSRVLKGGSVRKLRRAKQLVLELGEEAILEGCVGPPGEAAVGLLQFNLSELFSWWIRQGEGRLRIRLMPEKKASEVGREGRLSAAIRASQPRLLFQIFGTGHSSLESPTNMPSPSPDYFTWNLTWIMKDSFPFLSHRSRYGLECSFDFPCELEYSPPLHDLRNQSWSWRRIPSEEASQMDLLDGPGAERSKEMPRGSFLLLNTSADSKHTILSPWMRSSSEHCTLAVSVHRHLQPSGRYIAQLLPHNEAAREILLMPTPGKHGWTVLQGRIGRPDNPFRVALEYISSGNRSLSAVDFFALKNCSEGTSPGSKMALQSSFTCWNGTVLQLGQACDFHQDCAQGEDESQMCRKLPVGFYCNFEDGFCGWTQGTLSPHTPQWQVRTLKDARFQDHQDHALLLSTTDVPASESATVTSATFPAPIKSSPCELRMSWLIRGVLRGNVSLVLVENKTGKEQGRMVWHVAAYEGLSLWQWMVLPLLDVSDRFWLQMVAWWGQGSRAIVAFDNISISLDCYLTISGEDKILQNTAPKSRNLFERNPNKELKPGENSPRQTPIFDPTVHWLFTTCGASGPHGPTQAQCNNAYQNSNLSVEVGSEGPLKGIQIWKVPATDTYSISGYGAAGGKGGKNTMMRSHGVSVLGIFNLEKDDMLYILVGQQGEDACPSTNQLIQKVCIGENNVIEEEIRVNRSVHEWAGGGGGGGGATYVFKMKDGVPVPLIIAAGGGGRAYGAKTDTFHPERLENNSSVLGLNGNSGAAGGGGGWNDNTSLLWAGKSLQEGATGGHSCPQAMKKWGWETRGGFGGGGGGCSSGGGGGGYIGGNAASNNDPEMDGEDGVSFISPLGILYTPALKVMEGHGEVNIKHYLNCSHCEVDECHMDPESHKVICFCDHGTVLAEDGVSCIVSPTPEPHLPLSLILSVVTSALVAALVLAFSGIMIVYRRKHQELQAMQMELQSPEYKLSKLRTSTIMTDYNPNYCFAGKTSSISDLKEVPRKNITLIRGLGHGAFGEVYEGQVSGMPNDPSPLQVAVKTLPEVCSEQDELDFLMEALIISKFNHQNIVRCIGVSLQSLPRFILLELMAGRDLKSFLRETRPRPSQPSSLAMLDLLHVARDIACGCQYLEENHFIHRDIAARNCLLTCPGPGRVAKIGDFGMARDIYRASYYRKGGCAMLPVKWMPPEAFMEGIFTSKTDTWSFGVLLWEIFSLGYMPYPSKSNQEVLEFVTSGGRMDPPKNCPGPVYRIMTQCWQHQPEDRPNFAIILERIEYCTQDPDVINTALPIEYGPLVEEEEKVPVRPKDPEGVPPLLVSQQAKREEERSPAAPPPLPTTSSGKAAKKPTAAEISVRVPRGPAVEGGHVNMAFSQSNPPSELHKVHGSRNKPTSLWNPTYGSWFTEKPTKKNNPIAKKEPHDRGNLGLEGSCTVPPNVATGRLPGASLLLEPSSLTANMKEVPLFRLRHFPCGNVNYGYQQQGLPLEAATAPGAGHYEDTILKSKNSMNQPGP
# ALK(L1196M), sequence (Q9UM73 19-1620 L1196M): as the sequence (Q9UM73 19-1620 G1202R) above, with L1178M, R1184G counted along it
# ALK, sequence (Q9UM73 19-1620): as the sequence (Q9UM73 19-1620 G1202R) above, with R1184G counted along it
Compound,IC50 [1] [nM],IC50 [2] [nM],IC50 [3] [nM],IC50 [4] [nM],IC50 [5] [nM]
"Cc1cc(Nc2ncc(Cl)c(Nc3ccccc3N(C)S(C)(=O)=O)n2)c(OC(C)C)cc1C1=CCN(C2CCOCC2)CC1 [Example 1, N-(2-((5-chloro-2-((2-isopropoxy-5-methyl-4-(1-(tetrahydro-2H-pyran-4-yl)-1,2,3,6-tetrahydropyridin-4-yl)phenyl)amino)pyrimidin-4-yl)amino)phenyl)-N-methylmethanesulfonamide]",1.1,17.8,0.2,,
"Cc1cc(Nc2ncc(Cl)c(Nc3ccccc3N(C)S(C)(=O)=O)n2)c(OCC(F)(F)F)cc1C1=CCN(C2CCOCC2)CC1 [Example 7, N-(2-((5-chloro-2-((5-methyl-4-(1-(tetrahydro-2H-pyran-4-yl)-1,2,3,6-tetrahydropyridin-4-yl)-2-(2,2,2-trifluoroethoxy)phenyl)amino)pyrimidin-4-yl)amino)phenyl)-N-methylmethanesulfonamide]",0.5,10.5,0.05,16.8,39.1
"Cc1cc(Nc2ncc(Cl)c(Nc3ccccc3N(C)S(=O)(=O)C(C)C)n2)c(OC(C)C)cc1C1=CCN(C2CCOCC2)CC1 [Example 4, N-(2-((5-chloro-2-((2-isopropoxy-5-methyl-4-(1-(tetrahydro-2H-pyran-4-yl)-1,2,3,6-tetrahydropyridin-4-yl)phenyl)amino)pyrimidin-4-yl)amino)phenyl)-N-methylpropane-2-sulfonamide]",0.9,161,0.3,,
"Cc1cc(Nc2ncc(Cl)c(Nc3ccccc3N(C3CC3)S(C)(=O)=O)n2)c(OC(C)C)cc1C1=CCN(C2CCOCC2)CC1 [Example 5, N-(2-((5-chloro-2-((2-isopropoxy-5-methyl-4-(1-(tetrahydro-2H-pyran-4-yl)-1,2,3,6-tetrahydropyridin-4-yl)phenyl)amino)pyrimidin-4-yl)amino)phenyl)-N-cyclopropylmethanesulfonamide]",3.1,153,0.5,,
"Cc1cc(Nc2ncc(Cl)c(Nc3ccccc3NS(C)(=O)=O)n2)c(OC(C)C)cc1C1=CCN(C2CCOCC2)CC1 [Example 2, N-(2-((5-chloro-2-((2-isopropoxy-5-methyl-4-(1-(tetrahydro-2H-pyran-4-yl)-1,2,3,6-tetrahydropyridin-4-yl)phenyl)amino)pyrimidin-4-yl)amino)phenyl)methanesulfonamide]",1.8,25.8,0.6,,
Cc1cc(Nc2ncc(Cl)c(Nc3ccccc3N(C)S(N)(=O)=O)n2)c(OC(C)C)cc1C1=CCN(C2CCOCC2)CC1 [Example 8],0.6,17.8,0.07,20.8,22.1
"Cc1cc(Nc2ncc(Cl)c(Nc3ccccc3N(C)S(=O)(=O)C3CC3)n2)c(OC(C)C)cc1C1=CCN(C2CCOCC2)CC1 [Example 3, N-(2-((5-chloro-2-((2-isopropoxy-5-methyl-4-(1-(tetrahydro-2H-pyran-4-yl)-1,2,3,6-tetrahydropyridin-4-yl)phenyl)amino)pyrimidin-4-yl)amino)phenyl)-N-methylcyclopropanesulfonamide]",0.6,0.7,0.05,43.1,31.9
"Cc1cc(Nc2ncc(Cl)c(Nc3ccccc3N(C(C)C)S(C)(=O)=O)n2)c(OC(C)C)cc1C1=CCN(C2CCOCC2)CC1 [Example 6, N-(2-((5-chloro-2-((2-isopropoxy-5-methyl-4-(1-(tetrahydro-2H-pyran-4-yl)-1,2,3,6-tetrahydropyridin-4-yl)phenyl)amino)pyrimidin-4-yl)amino)phenyl)-N-isopropylmethanesulfonamide]",0.6,254,6.7,,
"Cc1cc(Nc2ncc(Cl)c(Nc3ccccc3S(=O)(=O)C(C)C)n2)c(OC(C)C)cc1C1=CCN(C2CCOCC2)CC1 [APG-2449, reference compound]",0.8,> 1000,0.9,62.9,87.8
